The results in this text go back to patent US20240254066A1, “RESCORCINOLS, METHODS FOR THEIR MANUFACTURE, AND USES THEREOF” (GW Research Limited, priority 2021, published 2024).

For this data set, the system named is tonic hind limb extensor convulsions (mouse model of generalised seizure). As to the kind of experiment: mini-MEST (maximal electroshock seizure threshold) test in the mouse. The conditions noted are these: for change in vivo at 5 mg/kg / change in vivo at 50 mg/kg: Mus musculus, ip, change in CC50; for change in vivo at 5 mg/kg: 0.25 h, read-out: % change from vehicle, 5 mg/kg i.p., 15 min post dose; for change in vivo at 50 mg/kg: 0.5 h, read-out: % change from vehicle, 50 mg/kg i.p., 30 min post dose. As to the method:
The efficacy of novel resorcinols 2, 3, 5, 8, 10, 15, 16, 17, 18, 19, 41 45, 46, 53, 56 and 58 were tested in a novel mouse model of generalised seizure, the mini-MEST (maximal electroshock seizure threshold) test, which uses lower n numbers than typically used.
The maximal electroshock seizure threshold (MEST) test is widely utilized preclinically to evaluate pro- or anti-convulsant properties of test compounds (Loscher et al., 1991).
In the MEST test the ability of a drug to alter the seizure threshold current required to induce hind limb tonic extensor convulsions is measured according to an “up and down” method of shock titration (Kimball et al., 1957). An increase in seizure threshold is indicative of anti-convulsant effect.
The ability of a test compound to alter the stimulus intensity, expressed as current (mA), required to induce the presence of tonic hind limb extensor convulsions, is assessed in the MEST.
Naïve mice were acclimatised to the procedure room in their home cages for up to 7 days, with food and water available ad libitum.
All animals were weighed at the beginning of the study and randomly assigned to treatment groups based on a mean distribution of body weight across groups.
The first animal within a treatment group was given a shock at the expected or estimated CC50 current. For subsequent animals, the current was lowered or raised depending on the convulsions outcome from the preceding animal in log scale intervals.
Data generated from each treatment group were used to calculate the CC50±SEM values for the treatment group.
Vehicle: (5% ethanol, 10% solutol in 85% Saline) was prepared as follows: 1 mL of ethanol, 2 mL of solutol were warmed to 60° C., in 17 mL of saline (1:2:17).
The test compounds used were 2, 3, 5, 8, 10, 15, 16, 17, 18, 19, 41, 45, 46, 53, 56 and 58 Test compounds were administered at 5-50 mg/kg (i.p.) in a 1:2:17 ethanol:solutol:saline formulation.
Test compound effects were also calculated as percentage change in CC50 from the vehicle control group.
Significant difference between drug-treated animals and controls were assessed according to Litchfield and Wilcoxon (1949).

Setting [1] is: 5 mg/kg i.p., test 15 min post dose.
Where [2] appears, read: 50 mg/kg i.p., test 30 min post dose.

For `C=C(C)[C@@H]1C[C@H](O)C(C)=C[C@H]1c1c(O)cc(Cl)cc1O` [Compound 2, (1′R,2′R,4′S)-4-Chloro-5′-methyl-2′-(prop-1-en-2-yl)-1′,2′,3′,4′-tetrahydro-[1,1′-biphenyl]-2,4′,6-triol], the change in vivo at 5 mg/kg was 7% and the change in vivo at 50 mg/kg was over 330%. Besides, the “CC50 +/− SEM” value under setting [1] is recorded as 28.3 ± 1.1 mA. In addition, the “CC50 +/− SEM” value under setting [2] is listed as over 114 mA.
Take `C=C(C)[C@@H]1C[C@H](O)C(C)=C[C@H]1c1c(O)cc(CC)cc1O` [Compound 3, (1″R,2′R,4′S)-4-Ethyl-5′-methyl-2″-(prop-1-en-2-yl)-1′,2″,3″,4′-tetrahydro-[1,1″-biphenyl]-2,4′,6-triol]: the change in vivo at 5 mg/kg was found to be 77% and the change in vivo at 50 mg/kg amounted to 137%. Besides, the “CC50 +/− SEM” value under setting [1] is 44.2 +/− 1.4 mA. Besides, the “CC50 +/− SEM” value under setting [2] is given as 59.2 +/− 1.4 mA.
The corresponding values for `C=C(C)[C@@H]1C[C@H](O)C(C)=C[C@H]1c1c(O)cc(CCOC)cc1O` [Compound 5, (1′R,2′R,4′S)-4-(2-Methoxyethyl)-5′-methyl-2′-(prop-1-en-2-yl)-1″,2′,3′,4′-tetrahydro-[1,1′-biphenyl]-2,4′,6-triol] are 0%, 115%, 23.5 +/− 0.3 mA and 50.5 +/− 0.7 mA.
With `C=C(C)[C@@H]1C[C@H](O)C(C)=C[C@H]1c1c(O)cc(/C=C/C)cc1O` [Compound 7, (1′R,2′R,4′S)-5′-Methyl-4-((E)-prop-1-en-1-yl)-2′-(prop-1-en-2-yl)-1′,2′,3′,4′-tetrahydro-[1,1′-biphenyl]-2,4′,6-triol], the change in vivo at 5 mg/kg is -2% and the change in vivo at 50 mg/kg stood at 153%. Also, the “CC50 +/− SEM” value under setting [1] worked out at 29.0 ± 1.5 mA. Also, the “CC50 +/− SEM” value under setting [2] worked out at 75.0 ± 3.4 mA.
Take `C=C(C)[C@@H]1C[C@H](O)C(C)=C[C@H]1c1c(O)cc(C2CC2)cc1O` [Compound 8, (1′R,2′R,4′S)-4-Cyclopropyl-5′-methyl-2′-(prop-1-en-2-yl)-1′,2′,3′,4′-tetrahydro-[1,1′-biphenyl]-2,4″,6-triol]: the change in vivo at 5 mg/kg was determined as 9% and the change in vivo at 50 mg/kg stood at 159%. Besides, under setting [1], the “CC50 +/− SEM” value was 24.5 ± 0.9 mA. Further, the “CC50 +/− SEM” value under setting [2] is reported as 58.2 ± 2.0 mA.
As for `C=C(C)[C@@H]1C[C@H](O)C(C)=C[C@H]1c1c(O)cc(C2=CCCC2)cc1O` [Compound 9, (1′R,2′R,4′S)-4-(Cyclopent-1-en-1-yl)-5′-methyl-2′-(prop-1-en-2-yl)-1′,2′,3′,4′-tetrahydro-[1,1′-biphenyl]-2,4′,6-triol], the change in vivo at 50 mg/kg is over 344%. Moreover, the “CC50 +/− SEM” value under setting [2] is on record as over 131.0 mA.
Consider `C=C(C)[C@@H]1C[C@H](O)C(C)=C[C@H]1c1c(O)cc(-c2cnn(C)c2)cc1O` [Compound 10, (1′R,2′R,4′S)-5′-Methyl-4-(1-methyl-1H-pyrazol-4-yl)-2′-(prop-1-en-2-yl)-1′,2″,3′,4′-tetrahydro-[1,1′-biphenyl]-2,4′,6-triol], for which the change in vivo at 5 mg/kg is 21% and the change in vivo at 50 mg/kg stood at 32%. Also, under setting [1], the “CC50 +/− SEM” value is given as 28.3 +/− 1.1 mA. The “CC50 +/− SEM” value under setting [2] is on record as 31.0 +/− 0.2 mA.
For `C=C(C)[C@@H]1C[C@H](O)C(C)=C[C@H]1c1c(O)cc(-c2cccc(OC)c2)cc1O` [Compound 15, (1R,2R,4S)-3″-Methoxy-5-methyl-2-(prop-1-en-2-yl)-1,2,3,4-tetrahydro-[1,1′:4′,1″-terphenyl]-2′,4,6′-triol], the change in vivo at 50 mg/kg was over 407%. Moreover, the “CC50 +/− SEM” value under setting [2] was over 114 mA.
As for `C=C(C)[C@@H]1C[C@H](O)C(C)=C[C@H]1c1c(O)cc(-c2ccnc(OC)c2)cc1O` [Compound 16, (1′R,2′R,4′S)-4-(2-Methoxypyridin-4-yl)-5′-methyl-2′-(prop-1-en-2-yl)-1″,2′,3′,4′-tetrahydro-[1,1′-biphenyl]-2,4′,6-triol], the change in vivo at 50 mg/kg was found to be 213%. The “CC50 +/− SEM” value under setting [2] was 70.5 +/− 1.3 mA.
As to `C=C(C)[C@@H]1C[C@H](O)C(C)=C[C@H]1c1c(O)cc(-c2ccc(OC)nc2)cc1O` [Compound 17, (1′R,2′R,4′S)-4-(6-Methoxypyridin-3-yl)-5′-methyl-2′-(prop-1-en-2-yl)-1′,2′,3′,4′-tetrahydro-[1,1′-biphenyl]-2,4′,6-triol], the change in vivo at 5 mg/kg worked out at 66% and the change in vivo at 50 mg/kg was over 385%. Further, the “CC50 +/− SEM” value under setting [1] is 39.0 +/− 0.2 mA. Also, under setting [2], the “CC50 +/− SEM” value was over 114 mA.
The matching figures for `C=C(C)[C@@H]1C[C@H](O)C(C)=C[C@H]1c1c(O)cc(-c2ccc(F)cc2)cc1O` [Compound 18, (1R,2R,4S)-4″-fluoro-5-methyl-2-(prop-1-en-2-yl)-1,2,3,4-tetrahydro-[1,1′:4′,1″-terphenyl]-2′,4,6′-triol]: 38%, 178%, 31.0 ± 4.5 mA and 61.5 ± 1.3 mA.
The matching figures for `C=C(C)[C@@H]1C[C@H](O)C(C)=C[C@H]1c1c(O)cc(-c2ccc(OC(F)F)nc2)cc1O` [Compound 19, (1′R,2′R,4′S)-4-(6-(Difluoromethoxy)pyridin-3-yl)-5′-methyl-2′-(prop-1-en-2-yl)-1′,2″,3′,4′-tetrahydro-[1,1′-biphenyl]-2,4′,6-triol]: 43%, 268%, 38.0 ± 1.9 mA and 97.5 ± 1.3 mA.
The corresponding values for `C=C(C)[C@@H]1C[C@H](O)C(C)=C[C@H]1c1c(O)cc(C2=CCOCC2)cc1O` [Compound 26, (1′R,2′R,4′S)-4-(3,6-Dihydro-2H-pyran-4-yl)-5′-methyl-2′-(prop-1-en-2-yl)-1′,2″,3′,4′-tetrahydro-[1,1′-biphenyl]-2,4′,6-triol] are 24%, 100%, 31.0 ± 0.2 mA and 50.0 ± 2.6 mA.
For `C=C(C)[C@@H]1C[C@H](O)C(C)=C[C@H]1c1c(O)cc(-c2ccccc2OC)cc1O` [Compound 29, (1R,2R,4S)-2″-Methoxy-5-methyl-2-(prop-1-en-2-yl)-1,2,3,4-tetrahydro-[1,1′:4′,1″-terphenyl]-2″,4,6′-triol], the change in vivo at 5 mg/kg worked out at 32% and the change in vivo at 50 mg/kg amounted to 166%. Under setting [1], the “CC50 +/− SEM” value was 35.0 ± 2.6 mA. Moreover, under setting [2], the “CC50 +/− SEM” value was 70.5 ± 1.3 mA.
The matching figures for `C=C(C)[C@@H]1C[C@H](O)C(C)=C[C@H]1c1c(O)cc(-c2ccc(F)c(OC)c2)cc1O` [Compound 30, (1R,2R,4S)-4″-Fluoro-3″-methoxy-5-methyl-2-(prop-1-en-2-yl)-1,2,3,4-tetrahydro-[1,1′:4′,1″-terphenyl]-2′,4,6′-triol]: 62%, over 394%, 43.0 ± 1.9 mA and over 131 mA.
Regarding `C=C(C)[C@@H]1C[C@H](O)C(C)=C[C@H]1c1c(O)cc(-c2cccc(OC(F)F)c2)cc1O` [Compound 31, (1R,2R,4S)-3″-(Difluoromethoxy)-5-methyl-2-(prop-1-en-2-yl)-1,2,3,4-tetrahydro-[1,1′:4′,1″-terphenyl]-2′,4,6′-triol], the change in vivo at 5 mg/kg was 25% and the change in vivo at 50 mg/kg was determined as 200%. Further, the “CC50 +/− SEM” value under setting [1] stood at 33.0 ± 1.5 mA. Moreover, the “CC50 +/− SEM” value under setting [2] was 79.5 ± 1.3 mA.
The matching figures for `C=C(C)[C@@H]1C[C@H](O)C(C)=C[C@H]1c1c(O)cc(-c2ccc(OC)cc2)cc1O` [Compound 33, (1R,2R,4S)-4″-Methoxy-5-methyl-2-(prop-1-en-2-yl)-1,2,3,4-tetrahydro-[1,1′:4′,1″-terphenyl]-2′,4,6′-triol]: 47%, 200%, 38.8 ± 1.4 mA and 79.5 ± 0.9 mA.
The corresponding values for `C=C(C)[C@@H]1C[C@H](O)C(C)=C[C@H]1c1c(O)cc(-c2cccnc2OC)cc1O` [Compound 35, (1′R,2′R,4′S)-4-(2-Methoxypyridin-3-yl)-5′-methyl-2′-(prop-1-en-2-yl)-1′,2′,3′,4′-tetrahydro-[1,1′-biphenyl]-2,4′,6-triol] are 62%, 457%, 38.0 ± 1.9 mA and over 131.0 mA.
